# Several values for one entry are separate records, joined by “and”; a condition that tells them apart may be missing. Equal values may be shown once.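 In this assay, cells in 96-well plates receive the compound at five concentrations for 48 hours. Endpoints are linearly interpolated between the surrounding concentrations. Here, GI50 denotes the concentration required for 50% inhibition of growth. TGI marks complete inhibition of growth.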
# What was measured:
# Test in all cases: growth of human tumour cells (NCI), 48 h
# OVCAR-3 ovarian = test system: OVCAR-3 ovarian
# OVCAR-8 ovarian = test system: OVCAR-8 ovarian
# CAKI-1 renal = test system: CAKI-1 renal
# OVCAR-4 ovarian = test system: OVCAR-4 ovarian
# NCI-H460 lung = test system: NCI-H460 lung
# TK-10 renal = test system: TK-10 renal
# ACHN renal = test system: ACHN renal
# SW-620 colon = test system: SW-620 colon
# T-47D breast = test system: T-47D breast
# HS 578T breast = test system: HS 578T breast
Structure (SMILES),GI50 (OVCAR-3 ovarian),TGI (OVCAR-3 ovarian),GI50 (OVCAR-8 ovarian),TGI (OVCAR-8 ovarian),GI50 (CAKI-1 renal),TGI (CAKI-1 renal),GI50 (OVCAR-4 ovarian),TGI (OVCAR-4 ovarian),GI50 (NCI-H460 lung),TGI (NCI-H460 lung),GI50 (TK-10 renal),TGI (TK-10 renal),GI50 (ACHN renal),TGI (ACHN renal),GI50 (SW-620 colon),TGI (SW-620 colon),GI50 (T-47D breast),TGI (T-47D breast),GI50 (HS 578T breast),TGI (HS 578T breast)
[Cl-].[Gd+3].[O-]/N=C(\c1ccccc1)c1ccccn1.[O-]/N=C(\c1ccccc1)c1ccccn1.[O-]/N=C(\c1ccccc1)c1ccccn1,21.3 µM,79.5 µM,34.3 µM,> 100 µM,42.3 µM,> 100 µM,43.7 µM,> 100 µM,50.7 µM,> 100 µM,34.9 µM,> 100 µM,64.3 µM,> 100 µM,41.7 µM,> 100 µM,–,–,–,–
O=C(c1ccccc1)C(Br)C(Br)c1ccccc1 (stereo not given),1.99 µM,3.65 µM,4.12 µM,13.3 µM,1.6 µM,3.34 µM,1.66 µM,3.08 µM,13.8 µM,29.5 µM,1.59 µM,3.01 µM,1.86 µM,3.38 µM,1.69 µM,3.28 µM,2.59 µM,6.26 µM,–,–
COC(=O)CC1CC2(C(=O)OC)c3[nH]c4ccccc4c3CCN2C1=O (stereo not given),–,> 100 µM,–,> 100 µM,–,> 100 µM,–,> 100 µM,–,> 100 µM,–,> 100 µM,–,> 100 µM,–,> 100 µM,–,–,–,–
c1cncc(C2ONC3=NCCN32)c1 (stereo not given),2.86 µM,27.8 µM,27.4 µM,> 100 µM,8.92 µM,42.2 µM,> 100 µM,> 100 µM,31 µM,> 100 µM,10.9 µM,70.6 µM,8 µM,38.3 µM,35.5 µM,> 100 µM,40 µM,> 100 µM,–,–
COc1cc2cc3c(c(O)c2c(O)c1-c1c(OC)cc2cc4c(c(O)c2c1O)C(=O)O[C@H](C)C4)C(=O)O[C@H](C)C3,21.2 µM,48.4 µM,33.5 µM,> 100 µM,23.9 µM,61.2 µM,22.4 µM,> 100 µM,16.8 µM,56.8 µM,60.3 µM,> 100 µM,24.7 µM,66.7 µM,77.1 µM,> 100 µM,23.3 µM,57.2 µM,–,–
COC(=O)[C@]1(C)CCC[C@]2(C)[C@@H]1CCC13C[C@@H](C=CO1)[C@@H](C)CC32O (stereo not given in full),17.8 µM,46.8 µM,> 100 µM,> 100 µM,55.2 µM,> 100 µM,61.5 µM,> 100 µM,43.8 µM,> 100 µM,–,–,> 100 µM,> 100 µM,> 100 µM,> 100 µM,–,–,20.7 µM,76.5 µM
C=C(Cl)[C@@](Cl)(CBr)CC[C@@H](Br)C(C)(C)Cl,–,2.87 µM and 1.35 µM,–,–,1.22 µM,4.9 µM and 1.06 µM,2.29 µM,7.36 µM and 3.15 µM,–,–,0.228 µM,0.545 µM and 0.679 µM,0.184 µM,0.562 µM and 0.47 µM,0.778 µM,–,0.775 µM,2.98 µM and 0.797 µM,0.208 µM,0.741 µM and 2.1 µM
CC1=CCN(c2ccccn2)OC1c1ccccc1 (stereo not given),–,> 100 µM,–,> 100 µM,–,> 100 µM,–,> 100 µM,–,> 100 µM,–,–,–,> 100 µM,–,> 100 µM,–,–,–,–
CCOc1ccc(Nc2nc(-c3c(C)nc4ncccn34)cs2)cc1,< 0.01 µM,14.6 µM,0.0401 µM,15.9 µM,0.0144 µM,15.8 µM,–,–,0.0305 µM,12.5 µM,12.8 µM,43 µM,0.0767 µM,19.5 µM,0.0218 µM,16 µM,1.04 µM,17.1 µM,0.0357 µM,23.3 µM
Nc1nc(=S)[nH]c(C(=O)Nc2nccs2)c1-c1ccccc1,–,> 100 µM,–,> 100 µM,–,> 100 µM,–,> 100 µM,–,> 100 µM,–,> 100 µM,–,> 100 µM,–,> 100 µM,–,–,–,–
O=C1CNN=C(Cn2nc(-c3ccccc3)c3ccccc3c2=O)N1,–,> 100 µM,–,> 100 µM,–,–,–,> 100 µM,–,> 100 µM,–,> 100 µM,–,> 100 µM,–,> 100 µM,–,–,–,–
N#CC(NC(=O)CCl)=C(Cl)Cl,1.13 µM,2.46 µM,2.21 µM,6.08 µM,1.69 µM,3.14 µM,1.76 µM,3.6 µM,2.69 µM,7.47 µM,1.74 µM,3.4 µM,1.22 µM,2.51 µM,1.44 µM,3.49 µM,–,–,3.46 µM,17.1 µM
O=C(/C=C(\[O-])c1ccccc1)CCCCCCC(=O)/C=C(\[O-])c1ccccc1.O=C(/C=C(\[O-])c1ccccc1)CCCCCCC(=O)/C=C(\[O-])c1ccccc1.O=C(/C=C(\[O-])c1ccccc1)CCCCCCC(=O)/C=C(\[O-])c1ccccc1.[Nd+3].[Nd+3],> 50 µM,> 50 µM,> 50 µM,> 50 µM,> 50 µM,> 50 µM,> 50 µM,> 50 µM,> 50 µM,> 50 µM,> 50 µM,> 50 µM,> 50 µM,> 50 µM,> 50 µM,> 50 µM,–,–,–,–
Nc1ccc(C(=O)/C=C/c2ccccc2O)cc1,–,> 100 µM,–,> 100 µM,–,> 100 µM,–,> 100 µM,–,> 100 µM,–,> 100 µM,–,> 100 µM,–,> 100 µM,–,–,–,–
COCC1N=C(c2cc(OC)c(OC)c(OC)c2-c2cc3c(cc2[C@H](C)O)OCO3)O[C@H]1c1ccccc1 (stereo not given in full),–,> 100 µM,–,> 100 µM,–,–,–,> 100 µM,–,–,–,> 100 µM,–,> 100 µM,–,> 100 µM,–,–,–,–
N#CCCN(CCC#N)c1ccc(C=Nc2ccc(F)cc2)cc1,–,> 100 µM,–,> 100 µM,–,> 100 µM,–,> 100 µM,–,> 100 µM,–,> 92.6 µM,–,> 100 µM,–,> 100 µM,–,> 100 µM,–,–

# Reference: PubChem BioAssay (NCI)
